This note sets out measurements from ChEMBL document CHEMBL1201862, “PubChem BioAssay data set” (2004).

Some test systems named below: PC-3; HL-60; HT-29; U-251; IGROV-1; MCF7; KM12; HOP-62; A498; HOP-92; OVCAR-5; SF-539; OVCAR-8; SW-620; 786-0; SK-MEL-2; MDA-N; NCI-H23; SK-OV-3; ACHN.
Holding throughout (test): DTP human tumour cell line panel, 48 h

Structures are written as SMILES.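 Results reflect a 48-hour exposure of cells in 96-well plates to compound at five concentrations. Abbreviation: GI50, concentration required for 50% inhibition of growth.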 Activity calls are given as the source filed them. Rule as the data show it: active = GI50 up to about 1.1 µM and inactive = higher.

In general, GI50 refers to the concentration that inhibits growth by half. For `Cc1ccc(C)n1-c1ccccc1C1C=CN(C(=O)OC(C)(C)C)C=C1`, the GI50 is 25.9 µM (inactive) in the experiment on PC-3; 32.7 µM (inactive) with HL-60; 12.1 µM (inactive) in the experiment with HT-29; 26.3 µM (inactive) with U-251; 31.4 µM (inactive) in the experiment with IGROV-1; 17.4 µM (inactive) with MCF7. For the same compound, the GI50 with KM12 is 14.9 µM (inactive); in the experiment on HOP-62 it was 31.4 µM (inactive); in the experiment with A498 it was 50.5 µM (inactive); with HOP-92, 37.6 µM (inactive); in the experiment with OVCAR-5 it was 29.6 µM (inactive); in the experiment with SF-539, 46.3 µM (inactive). Also, the GI50 in the experiment with OVCAR-8 is 32.7 µM (inactive); with SW-620 it was 19.2 µM (inactive); with 786-0 it was 31.8 µM (inactive); with SK-MEL-2, 16.9 µM (inactive); in the experiment on MDA-N it was 46.2 µM (inactive); with NCI-H23 it was 27.5 µM (inactive). Besides, the results for the GI50 in the experiment on SK-OV-3 and in the experiment with ACHN were > 100 µM (inactive) and 32.6 µM (inactive), respectively.
`CC1CC(=O)Nc2ccccc2N1C(=O)C1CC1` (stereo not given): the GI50 in the experiment on PC-3, in the experiment with HL-60, in the experiment on HT-29, in the experiment with U-251, in the experiment on IGROV-1 and in the experiment with MCF7 was > 100 µM (inactive) each time. Further, the GI50 is > 100 µM (inactive) in the experiment with KM12; > 100 µM (inactive) with HOP-62; > 100 µM (inactive) in the experiment on A498; 19.5 µM (inactive) in the experiment on HOP-92; > 100 µM (inactive) in the experiment on OVCAR-5; > 100 µM (inactive) with SF-539. The GI50 in the experiment with OVCAR-8, in the experiment on SW-620, in the experiment with 786-0, in the experiment with SK-MEL-2, in the experiment with MDA-N and with NCI-H23 was > 100 µM (inactive) each time. For the same compound, the GI50 in the experiment with SK-OV-3 and in the experiment on ACHN was > 100 µM (inactive) in each case.
With `N#CC1(Nc2ccc(-c3ccc(NC4(C#N)CCCC4)cc3)cc2)CCCC1`, the GI50 was > 100 µM (inactive) with PC-3; > 100 µM (inactive) in the experiment with HL-60; 77.4 µM (inactive) in the experiment with HT-29; > 100 µM (inactive) in the experiment on U-251; > 100 µM (inactive) in the experiment on IGROV-1; > 100 µM (inactive) in the experiment with MCF7. Further, the GI50 was > 100 µM (inactive) in the experiment on KM12; > 100 µM (inactive) in the experiment on HOP-62; > 100 µM (inactive) with A498; 39.3 µM (inactive) in the experiment on HOP-92; > 100 µM (inactive) with OVCAR-5; 11.8 µM (inactive) in the experiment on SF-539. In addition, the GI50 with OVCAR-8, in the experiment on SW-620, with 786-0, in the experiment on SK-MEL-2, in the experiment with MDA-N and with NCI-H23 was > 100 µM (inactive) in each case. Moreover, the GI50 with SK-OV-3 is > 100 µM (inactive); in the experiment with ACHN it was 34.9 µM (inactive).
Turning to `Cc1c(-c2ccccc2)c(C#N)c2nnn(-c3cccc(Cl)c3)c(=O)n12`, the GI50 in the experiment on PC-3 is 26.5 µM (inactive); with HL-60 it was > 100 µM (inactive); in the experiment on HT-29, 30.8 µM (inactive); with U-251, 68.4 µM (inactive); in the experiment on IGROV-1, 54.8 µM (inactive); in the experiment on MCF7 it was 43.9 µM (inactive). The GI50 in the experiment with KM12 was 55.8 µM (inactive); in the experiment with HOP-62 it was 37.2 µM (inactive); in the experiment on A498, 26.2 µM (inactive); in the experiment on HOP-92 it was 44.9 µM (inactive); with OVCAR-5 it was > 100 µM (inactive); with SF-539 it was 32.9 µM (inactive). Further, the GI50 is 53.5 µM (inactive) in the experiment with OVCAR-8; 46.8 µM (inactive) in the experiment with SW-620; 28.6 µM (inactive) with 786-0; 27.7 µM (inactive) in the experiment with SK-MEL-2; > 100 µM (inactive) in the experiment with MDA-N; > 100 µM (inactive) with NCI-H23. Also, the GI50 is 37.8 µM (inactive) in the experiment with SK-OV-3 and 53.2 µM (inactive) with ACHN.
Turning to `O=C(NCCCNCCCCNCCCNC(=O)c1cc(-c2ccccc2)nc2ccccc12)c1cc(-c2ccccc2)nc2ccccc12`, the GI50 in the experiment on PC-3 is 2.12 µM (inactive); in the experiment with HL-60, 1.79 µM (inactive); with HT-29, 1.91 µM (inactive); with U-251, 1.66 µM (inactive); in the experiment with IGROV-1, 2.16 µM (inactive); in the experiment on MCF7, 2.1 µM (inactive). Besides, the GI50 is 2.19 µM (inactive) with KM12; 2.36 µM (inactive) in the experiment with HOP-62; 20.7 µM (inactive) in the experiment with A498; 1.48 µM (inactive) in the experiment with HOP-92; 2.05 µM (inactive) in the experiment with OVCAR-5; 1.9 µM (inactive) with SF-539. The GI50 in the experiment on OVCAR-8 was 1.82 µM (inactive); in the experiment with SW-620, 2.62 µM (inactive); in the experiment with 786-0, 1.69 µM (inactive); in the experiment with SK-MEL-2, 1.62 µM (inactive); with MDA-N it was 1.77 µM (inactive); in the experiment on NCI-H23, 3 µM (inactive). The GI50 with SK-OV-3 was 2.27 µM (inactive); with ACHN, 18.5 µM (inactive).
For `CC(O)c1cc2c(s1)C(=O)c1ccsc1C2=O` (stereo not given), the GI50 was 0.0632 µM (active) with PC-3; 0.0144 µM (active) with HL-60; 0.21 µM (active) in the experiment with HT-29; 0.0944 µM (active) in the experiment on U-251; 0.468 µM (active) in the experiment on IGROV-1; 0.0457 µM (active) in the experiment on MCF7. Further, the GI50 in the experiment on KM12 was 0.508 µM (active); with HOP-62 it was 0.142 µM (active); in the experiment with A498, 1.53 µM (inactive); with HOP-92, 0.265 µM (active); in the experiment with OVCAR-5 it was 0.14 µM (active); in the experiment with SF-539 it was 0.0509 µM (active). Further, the GI50 with OVCAR-8 is 0.22 µM (active); with SW-620, 0.138 µM (active); with 786-0, 0.665 µM (active); in the experiment with SK-MEL-2, 0.126 µM (active); in the experiment with MDA-N it was 0.0139 µM (active); in the experiment on NCI-H23 it was 0.0169 µM (active). Besides, the GI50 is 2.7 µM (inactive) with SK-OV-3 and 0.117 µM (active) in the experiment on ACHN.
Take `Cc1cc2cc3c(O)nc(O)nc3nc2cc1C`: the GI50 in the experiment on PC-3, in the experiment on HL-60, in the experiment on HT-29, in the experiment with U-251, with IGROV-1 and in the experiment with MCF7 was > 100 µM (inactive) throughout. Further, the GI50 with KM12, with HOP-62, with A498, in the experiment with HOP-92, in the experiment with OVCAR-5 and with SF-539 was > 100 µM (inactive) each time. Moreover, the GI50 in the experiment on OVCAR-8, in the experiment with SW-620, with 786-0, in the experiment on SK-MEL-2, in the experiment on MDA-N and in the experiment on NCI-H23 was > 100 µM (inactive) each time. Further, the GI50 in the experiment with SK-OV-3 and in the experiment with ACHN was > 100 µM (inactive) throughout.
As to `O=C(O)CCC(=O)Nc1ccc2c(c1)S(=O)(=O)N(CC(=O)O)C2=O`, the GI50 with PC-3, with HL-60, in the experiment on HT-29, in the experiment with U-251, with IGROV-1 and in the experiment on MCF7 was > 100 µM (inactive) throughout. Further, the GI50 in the experiment on KM12 is 21.9 µM (inactive); in the experiment on HOP-62, > 100 µM (inactive); in the experiment on A498, > 100 µM (inactive); in the experiment on HOP-92, > 100 µM (inactive); with OVCAR-5, > 100 µM (inactive); in the experiment on SF-539, > 100 µM (inactive). Besides, the GI50 with OVCAR-8, in the experiment with SW-620, with 786-0, in the experiment on SK-MEL-2, in the experiment on MDA-N and with NCI-H23 was > 100 µM (inactive) each time. For the same compound, the GI50 with SK-OV-3 and in the experiment with ACHN was > 100 µM (inactive) each time.
`CN(C)c1ccc(/C=C/c2cc(-c3ccccc3)[n+](C)n2-c2ccccc2)cc1`: the GI50 is 0.158 µM (active) in the experiment on PC-3; 0.0218 µM (active) with HL-60; 0.0995 µM (active) in the experiment on HT-29; 0.0573 µM (active) in the experiment with U-251; 0.154 µM (active) with IGROV-1; 0.157 µM (active) in the experiment with MCF7. The GI50 is 0.0635 µM (active) in the experiment with KM12; 0.54 µM (active) in the experiment on HOP-62; 0.774 µM (active) in the experiment on A498; 0.467 µM (active) in the experiment with HOP-92; 1.6 µM (inactive) in the experiment with OVCAR-5; 1.49 µM (inactive) in the experiment on SF-539. Moreover, the GI50 is 0.207 µM (active) in the experiment with OVCAR-8; 0.299 µM (active) in the experiment with SW-620; 0.43 µM (active) in the experiment on 786-0; 0.224 µM (active) in the experiment with SK-MEL-2; 0.114 µM (active) with MDA-N; 0.0349 µM (active) in the experiment on NCI-H23. For the same compound, the GI50 is 0.401 µM (active) in the experiment with SK-OV-3 and 1.44 µM (inactive) in the experiment with ACHN.
